# Results as given in US12077503B2, “Substituted cyclic amides and their use as herbicides” (FMC CORPORATION, priority 2015, dated 2024).
# Like-named read-outs stand apart in the source and are kept apart here.
# Assays:
# Type in all cases: in vivo
# [1] = tested on: pigweed (Amaranthus retroflexus); assay: Test A preemergence; conditions: Amaranthus retroflexus, pre-emergence, 240 h; for pest or weed control at 125 g/ha: 125 g ai/ha; for pest or weed control at 500 g/ha: 500 g ai/ha
# [2] = tested on: Galium (catchweed bedstraw, Galium aparine); assay: Test A postemergence; conditions: Galium, post-emergence, 240 h, postemergence; for pest or weed control at 125 g/ha: 125 g ai/ha
# Method in brief: (§1)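 Greenhouse, ~10 d after spray; visual injury vs untreated controls, 0 = no effect, 100 = complete control. Preemergence: directed soil spray over planted seeds. Postemergence: plants 2–10 cm, 1–2 leaf stage. Loam/sand blend. Compound in non-phytotoxic solvent with surfactant.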
# Kochia (Kochia scoparia) = assay: Test A postemergence; conditions: Bassia scoparia, post-emergence, 240 h, postemergence; for pest or weed control at 125 g/ha: 125 g ai/ha
# Method in brief: as §1
# [3] = tested on: barnyardgrass (Echinochloa crus-galli); assay: Test A postemergence; conditions: Echinochloa crus-galli, post-emergence, 240 h, postemergence; for pest or weed control at 125 g/ha: 125 g ai/ha
# Method in brief: as §1
# [4] = tested on: blackgrass (Alopecurus myosuroides); assay: Test A postemergence; conditions: Alopecurus myosuroides, post-emergence, 240 h, postemergence; for pest or weed control at 125 g/ha: 125 g ai/ha
# Method in brief: as §1
# corn (Zea mays) = assay: Test A postemergence; conditions: Zea mays, post-emergence, 240 h, postemergence; for plant injury at 125 g/ha: 125 g ai/ha
# Method in brief: as §1
# [5] = tested on: giant foxtail (Setaria faberii); assay: Test A postemergence; conditions: Setaria faberi, post-emergence, 240 h, postemergence; for pest or weed control at 125 g/ha: 125 g ai/ha
# Method in brief: as §1
# [6] = tested on: pigweed (Amaranthus retroflexus); assay: Test A postemergence; conditions: Amaranthus retroflexus, post-emergence, 240 h, postemergence; for pest or weed control at 125 g/ha: 125 g ai/ha
# Method in brief: as §1
# [7] = tested on: ragweed (common ragweed, Ambrosia elatior); assay: Test A postemergence; conditions: Ambrosia artemisiifolia, post-emergence, 240 h, postemergence; for pest or weed control at 125 g/ha: 125 g ai/ha
# Method in brief: as §1
# [8] = tested on: ryegrass, Italian (Italian ryegrass, Lolium multiflorum); assay: Test A postemergence; conditions: Lolium multiflorum, post-emergence, 240 h, postemergence; for pest or weed control at 125 g/ha: 125 g ai/ha
# Method in brief: as §1
# [9] = tested on: wheat (Triticum aestivum); assay: Test A postemergence; conditions: Triticum aestivum, post-emergence, 240 h, postemergence; for plant injury at 125 g/ha: 125 g ai/ha
# Method in brief: as §1
# [10] = tested on: barnyardgrass (Echinochloa crus-galli); assay: Test B flooded paddy test; conditions: Echinochloa crus-galli, 250 g ai/ha, Flood, read-out: Barnyardgrass plant response rating
# Method in brief: (§2)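 Greenhouse paddy pots with 2-leaf stage plants received compound by direct addition to floodwater 3 cm deep, kept at that level. Scored visually at 13–15 d versus controls (0 no effect; 100 complete control).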
# [11] = tested on: ducksalad (Heteranthera limosa); assay: Test B flooded paddy test; conditions: Heteranthera limosa, 250 g ai/ha, Flood, read-out: Ducksalad plant response rating
# Method in brief: as §2
# rice (Oryra sativa) = assay: Test B flooded paddy test; conditions: Oryza sativa, 250 g ai/ha, Flood, read-out: Rice plant response rating
# Method in brief: as §2
# [12] = tested on: sedge, umbrella (small-flower umbrella sedge, Cyperus difformis); assay: Test B flooded paddy test; conditions: Cyperus difformis, 250 g ai/ha, Flood, read-out: Sedge, Umbrella plant response rating
# Method in brief: as §2
# [13] = preemergence, 0 to 100 scale where 0 is no effect and 100 is complete control, read-out: Pigweed plant response rating
# [14] = 0 to 100 scale where 0 is no effect and 100 is complete control
# [15] = scale of 0 to 100 where 0 is no effect and 100 is complete control
compound,measurement,setting,value
CN1C[C@H](c2ccc(F)c(F)c2)[C@@H](C(=S)Nc2ccccc2F)C1=O (racemic) [Compound 1153],pest or weed control at 125 g/ha,"[1]; preemergence, 0 to 100 scale where 0 is no effect and 100 is complete control, approx. 10 d, read-out: Pigweed plant response rating",0%
same,pest or weed control at 500 g/ha,[1]; [13],0%
same,pest or weed control at 125 g/ha,"[2]; visual injury on 0 to 100 scale (0 no effect, 100 complete control), approx. 10 d, read-out: Galium plant response rating",30%
same,pest or weed control at 500 g/ha,"[2]; 500 g ai/ha, 0 to 100 scale, 0 is no effect, 100 is complete control, read-out: Galium plant response rating",40%
same,pest or weed control at 125 g/ha,"Kochia (Kochia scoparia); visual injury on 0 to 100 scale (0 no effect, 100 complete control), approx. 10 d, read-out: Kochia plant response rating",0%
same,pest or weed control at 500 g/ha,"Kochia (Kochia scoparia); 500 g ai/ha, 0 to 100 scale, 0 is no effect, 100 is complete control, read-out: Kochia plant response rating",0%
same,pest or weed control at 125 g/ha,"[3]; visual injury on 0 to 100 scale (0 no effect, 100 complete control), approx. 10 d, read-out: Barnyardgrass plant response rating",90%
same,pest or weed control at 500 g/ha,"[3]; 500 g ai/ha, 0 to 100 scale, 0 is no effect, 100 is complete control, read-out: Barnyardgrass plant response rating",90%
same,pest or weed control at 125 g/ha,"[4]; visual injury on 0 to 100 scale (0 no effect, 100 complete control), approx. 10 d, read-out: Blackgrass plant response rating",0%
same,pest or weed control at 500 g/ha,"[4]; 500 g ai/ha, 0 to 100 scale, 0 is no effect, 100 is complete control, read-out: Blackgrass plant response rating",30%
same,plant injury at 125 g/ha,"corn (Zea mays); visual injury on 0 to 100 scale (0 no effect, 100 complete control), approx. 10 d, read-out: Corn plant response rating",0%
same,plant injury at 500 g/ha,"corn (Zea mays); 500 g ai/ha, 0 to 100 scale, 0 is no effect, 100 is complete control, read-out: Corn plant response rating",0%
same,pest or weed control at 125 g/ha,"[5]; visual injury on 0 to 100 scale (0 no effect, 100 complete control), approx. 10 d, read-out: Foxtail, Giant plant response rating",60%
same,pest or weed control at 500 g/ha,"[5]; 500 g ai/ha, 0 to 100 scale, 0 is no effect, 100 is complete control, read-out: Foxtail, Giant plant response rating",90%
same,pest or weed control at 125 g/ha,"[6]; visual injury vs untreated controls after approx. 10 d, 0 = no effect, 100 = complete control, read-out: Pigweed plant response rating (0 to 100 scale)",0%
same,pest or weed control at 500 g/ha,"[6]; 500 g ai/ha, 0 to 100 scale, 0 is no effect, 100 is complete control, read-out: Pigweed plant response rating",0%
same,pest or weed control at 125 g/ha,"[7]; visual injury vs untreated controls after approx. 10 d, 0 = no effect, 100 = complete control, read-out: Ragweed plant response rating (0 to 100 scale)",0%
same,pest or weed control at 500 g/ha,"[7]; 500 g ai/ha, 0 to 100 scale, 0 is no effect, 100 is complete control, read-out: Ragweed plant response rating",0%
same,pest or weed control at 125 g/ha,"[8]; visual injury vs untreated controls after approx. 10 d, 0 = no effect, 100 = complete control, read-out: Ryegrass, Italian plant response rating (0 to 100 scale)",0%
same,pest or weed control at 500 g/ha,"[8]; 500 g ai/ha, 0 to 100 scale, 0 is no effect, 100 is complete control, read-out: Ryegrass, Italian plant response rating",0%
same,plant injury at 125 g/ha,"[9]; visual injury vs untreated controls after approx. 10 d, 0 = no effect, 100 = complete control, read-out: Wheat plant response rating (0 to 100 scale)",0%
same,plant injury at 500 g/ha,"[9]; 500 g ai/ha, 0 to 100 scale, 0 is no effect, 100 is complete control, read-out: Wheat plant response rating",0%
same,pest or weed control at 250 g/ha,[10]; [14],30%
same,pest or weed control at 250 g/ha,[11]; [14],70%
same,pest or weed control at 250 g/ha,rice (Oryra sativa); [14],0%
same,pest or weed control at 250 g/ha,[12]; [14],0%
Cc1c(F)ccc([C@H]2CNC(=O)[C@@H]2C(=O)Nc2ccccc2C(F)(F)F)c1F [Compound 831],pest or weed control at 125 g/ha,[1]; [13],20%
same,pest or weed control at 500 g/ha,"[1]; Preemergence, visual injury vs untreated controls after approximately 10 d, read-out: Pigweed plant response rating (0 to 100 scale where 0 is no effect and 100 is complete control)",20%
same,pest or weed control at 125 g/ha,"[2]; visual injury rating after approximately 10 d, read-out: Galium plant response rating (0 to 100 scale, 0 no effect, 100 complete control)",20%
same,pest or weed control at 125 g/ha,"Kochia (Kochia scoparia); visual injury rating after approximately 10 d, read-out: Kochia plant response rating (0 to 100 scale, 0 no effect, 100 complete control)",0%
same,pest or weed control at 125 g/ha,"[3]; visual injury rating after approximately 10 d, read-out: Barnyardgrass plant response rating (0 to 100 scale, 0 no effect, 100 complete control)",30%
same,pest or weed control at 125 g/ha,"[4]; visual injury rating after approximately 10 d, read-out: Blackgrass plant response rating (0 to 100 scale, 0 no effect, 100 complete control)",0%
same,plant injury at 125 g/ha,"corn (Zea mays); visual injury rating after approximately 10 d, read-out: Corn plant response rating (0 to 100 scale, 0 no effect, 100 complete control)",0%
same,pest or weed control at 125 g/ha,"[5]; visual injury rating after approximately 10 d, read-out: Foxtail, Giant plant response rating (0 to 100 scale, 0 no effect, 100 complete control)",20%
same,pest or weed control at 125 g/ha,"[6]; visual injury rating after approximately 10 d, read-out: Pigweed plant response rating (0 to 100 scale, 0 no effect, 100 complete control)",0%
same,pest or weed control at 125 g/ha,"[7]; visual injury rating after approximately 10 d, read-out: Ragweed plant response rating (0 to 100 scale, 0 no effect, 100 complete control)",0%
same,pest or weed control at 125 g/ha,"[8]; visual injury rating after approximately 10 d, read-out: Ryegrass, Italian plant response rating (0 to 100 scale, 0 no effect, 100 complete control)",20%
same,plant injury at 125 g/ha,"[9]; visual injury rating after approximately 10 d, read-out: Wheat plant response rating (0 to 100 scale, 0 no effect, 100 complete control)",0%
same,pest or weed control at 250 g/ha,[10]; [15],0%
same,pest or weed control at 250 g/ha,[11]; [15],70%
same,pest or weed control at 250 g/ha,rice (Oryra sativa); [15],0%
same,pest or weed control at 250 g/ha,[12]; [15],0%
